# Reference: ChEMBL document CHEMBL4613209, “Quinolone hybrids and their anti-cancer activities: An overview” (Eur J Med Chem, 2019)
# System: HL-60
# Assay: Antiproliferative activity against human HL60 cells after 72 hrs by MTT assay
# Type: functional, cell-based
# Details: HL-60, 72 h
row,Compound,IC50 [nM]
1,CCn1cc(C(=O)O)c(=O)c2cc(F)c(N3CCN(C(=N)NS(=O)(=O)c4cccc(Cl)c4)CC3)cc21,32 to 161
2,CCn1cc(C(=O)O)c(=O)c2cc(F)c(N3CCN(C(=N)NS(=O)(=O)c4ccccc4C(F)(F)F)CC3)cc21,32 to 161
3,N=C(NS(=O)(=O)c1ccccc1C(F)(F)F)N1CCN(c2cc3c(cc2F)c(=O)c(C(=O)O)cn3C2CC2)CC1,32 to 161
4,N=C(NS(=O)(=O)c1ccccc1Cl)N1CCN(c2cc3c(cc2F)c(=O)c(C(=O)O)cn3C2CC2)CC1,32 to 79
5,CCn1cc(C(=O)O)c(=O)c2cc(F)c(N3CCN(C(=N)NS(=O)(=O)c4ccccc4Cl)CC3)cc21,32 to 79
6,N=C(NS(=O)(=O)c1cccc(Cl)c1)N1CCN(c2cc3c(cc2F)c(=O)c(C(=O)O)cn3C2CC2)CC1,32 to 161
7,N=C(NS(=O)(=O)c1ccc(Cl)cc1)N1CCN(c2cc3c(cc2F)c(=O)c(C(=O)O)cn3C2CC2)CC1,32 to 161
8,CCn1cc(C(=O)O)c(=O)c2cc(F)c(N3CCN(C(=N)NS(=O)(=O)c4ccc(C(F)(F)F)cc4)CC3)cc21,32 to 161
9,CCn1cc(C(=O)O)c(=O)c2cc(F)c(N3CCN(C(=N)NS(=O)(=O)c4ccc(Cl)cc4)CC3)cc21,32 to 161
10,Cc1ccc(S(=O)(=O)NC(=N)N2CCN(c3cc4c(cc3F)c(=O)c(C(=O)O)cn4C3CC3)CC2)cc1,32 to 161

# System: A549
# Assay: Antiproliferative activity against human A549 cells after 72 hrs by MTT assay
# Type: functional, cell-based
# Details: A549, 72 h
row,Compound,IC50 [nM]
1,CCn1cc(C(=O)O)c(=O)c2cc(F)c(N3CCN(C(=N)NS(=O)(=O)c4cccc(Cl)c4)CC3)cc21,32 to 161
2,CCn1cc(C(=O)O)c(=O)c2cc(F)c(N3CCN(C(=N)NS(=O)(=O)c4ccccc4C(F)(F)F)CC3)cc21,32 to 161
3,N=C(NS(=O)(=O)c1ccccc1C(F)(F)F)N1CCN(c2cc3c(cc2F)c(=O)c(C(=O)O)cn3C2CC2)CC1,32 to 161
4,N=C(NS(=O)(=O)c1ccccc1Cl)N1CCN(c2cc3c(cc2F)c(=O)c(C(=O)O)cn3C2CC2)CC1,32 to 79
5,CCn1cc(C(=O)O)c(=O)c2cc(F)c(N3CCN(C(=N)NS(=O)(=O)c4ccccc4Cl)CC3)cc21,32 to 79
6,N=C(NS(=O)(=O)c1cccc(Cl)c1)N1CCN(c2cc3c(cc2F)c(=O)c(C(=O)O)cn3C2CC2)CC1,32 to 161
7,N=C(NS(=O)(=O)c1ccc(Cl)cc1)N1CCN(c2cc3c(cc2F)c(=O)c(C(=O)O)cn3C2CC2)CC1,32 to 161
8,CCn1cc(C(=O)O)c(=O)c2cc(F)c(N3CCN(C(=N)NS(=O)(=O)c4ccc(C(F)(F)F)cc4)CC3)cc21,32 to 161
9,CCn1cc(C(=O)O)c(=O)c2cc(F)c(N3CCN(C(=N)NS(=O)(=O)c4ccc(Cl)cc4)CC3)cc21,32 to 161
10,Cc1ccc(S(=O)(=O)NC(=N)N2CCN(c3cc4c(cc3F)c(=O)c(C(=O)O)cn4C3CC3)CC2)cc1,32 to 161

# System: HL-60
# Assay: Antiproliferative activity against human HL60 cells by MTT assay
# Type: functional, cell-based
# Details: not given
row,Compound,IC50 [nM]
1,O=C(O)c1cn(C2CC2)c2c(c1=O)C=C(F)C1=NN=C(c3cccc([N+](=O)[O-])c3)CN12,1000 to 48600
2,Cc1ccccc1C1=NN=C2C(F)=Cc3c(n(C4CC4)cc(C(=O)O)c3=O)N2C1,1000 to 48600
3,COc1ccc(C2=NN=C3C(F)=Cc4c(n(C5CC5)cc(C(=O)O)c4=O)N3C2)cc1,1000 to 48600
4,O=C(O)c1cn(C2CC2)c2c(c1=O)C=C(F)C1=NN=C(c3ccc(F)cc3)CN12,1000 to 48600
5,O=C(O)c1cn(C2CC2)c2c(c1=O)C=C(F)C1=NN=C(c3ccc(O)cc3)CN12,1000 to 48600
6,Nc1cccc(C2=NN=C3C(F)=Cc4c(n(C5CC5)cc(C(=O)O)c4=O)N3C2)c1,1000 to 48600
7,O=C(O)c1cn(C2CC2)c2c(c1=O)C=C(F)C1=NN=C(c3cccc(Cl)c3)CN12,1000 to 48600
8,Cc1ccc(C2=NN=C3C(F)=Cc4c(n(C5CC5)cc(C(=O)O)c4=O)N3C2)cc1,1000 to 48600
9,O=C(O)c1cn(C2CC2)c2c(c1=O)C=C(F)C1=NN=C(c3ccc(Cl)cc3)CN12,1000 to 48600
10,O=C(O)c1cn(C2CC2)c2c(c1=O)C=C(F)C1=NN=C(c3ccccc3)CN12,1000 to 48600
11,Nc1ccc(C2=NN=C3C(F)=Cc4c(n(C5CC5)cc(C(=O)O)c4=O)N3C2)cc1,1000 to 48600
12,O=C(O)c1cn(C2CC2)c2c(c1=O)C=C(F)C1=NN=C(c3ccc([N+](=O)[O-])cc3)CN12,1000 to 48600
13,COc1ccccc1C1=NN=C2C(F)=Cc3c(n(C4CC4)cc(C(=O)O)c3=O)N2C1,1000 to 48600
14,COc1ccc(C2=NN=C3C(F)=Cc4c(n(C5CC5)cc(C(=O)O)c4=O)N3C2)cc1OC,1000 to 48600
15,O=C(O)c1cn(C2CC2)c2c(c1=O)C=C(F)C1=NN=C(c3ccccc3F)CN12,1000 to 48600
16,O=C(O)c1cn(C2CC2)c2c(c1=O)C=C(F)C1=NN=C(c3ccc(Br)cc3)CN12,1000 to 48600

# System: SMMC-7721
# Assay: Antiproliferative activity against human SMMC7721 cells by MTT assay
# Type: functional, cell-based
# Details: not given
row,Compound,IC50 [nM]
1,O=C(O)c1cn(C2CC2)c2c(c1=O)C=C(F)C1=NN=C(c3cccc([N+](=O)[O-])c3)CN12,1600
2,Cc1ccccc1C1=NN=C2C(F)=Cc3c(n(C4CC4)cc(C(=O)O)c3=O)N2C1,1000 to 48600
3,COc1ccc(C2=NN=C3C(F)=Cc4c(n(C5CC5)cc(C(=O)O)c4=O)N3C2)cc1,1000 to 48600
4,O=C(O)c1cn(C2CC2)c2c(c1=O)C=C(F)C1=NN=C(c3ccc(F)cc3)CN12,1000 to 48600
5,O=C(O)c1cn(C2CC2)c2c(c1=O)C=C(F)C1=NN=C(c3ccc(O)cc3)CN12,1000 to 48600
6,Nc1cccc(C2=NN=C3C(F)=Cc4c(n(C5CC5)cc(C(=O)O)c4=O)N3C2)c1,1000 to 48600
7,O=C(O)c1cn(C2CC2)c2c(c1=O)C=C(F)C1=NN=C(c3cccc(Cl)c3)CN12,1000 to 48600
8,Cc1ccc(C2=NN=C3C(F)=Cc4c(n(C5CC5)cc(C(=O)O)c4=O)N3C2)cc1,1000 to 48600
9,O=C(O)c1cn(C2CC2)c2c(c1=O)C=C(F)C1=NN=C(c3ccc(Cl)cc3)CN12,1000 to 48600
10,O=C(O)c1cn(C2CC2)c2c(c1=O)C=C(F)C1=NN=C(c3ccccc3)CN12,1000 to 48600
11,Nc1ccc(C2=NN=C3C(F)=Cc4c(n(C5CC5)cc(C(=O)O)c4=O)N3C2)cc1,1000 to 48600
12,O=C(O)c1cn(C2CC2)c2c(c1=O)C=C(F)C1=NN=C(c3ccc([N+](=O)[O-])cc3)CN12,1000
13,COc1ccccc1C1=NN=C2C(F)=Cc3c(n(C4CC4)cc(C(=O)O)c3=O)N2C1,1000 to 48600
14,COc1ccc(C2=NN=C3C(F)=Cc4c(n(C5CC5)cc(C(=O)O)c4=O)N3C2)cc1OC,1000 to 48600
15,O=C(O)c1cn(C2CC2)c2c(c1=O)C=C(F)C1=NN=C(c3ccccc3F)CN12,1000 to 48600
16,O=C(O)c1cn(C2CC2)c2c(c1=O)C=C(F)C1=NN=C(c3ccc(Br)cc3)CN12,1000 to 48600

# System: L1210
# Assay: Antiproliferative activity against mouse L1210 cells by MTT assay
# Type: functional, cell-based
# Details: not given
row,Compound,IC50 [nM]
1,O=C(O)c1cn(C2CC2)c2c(c1=O)C=C(F)C1=NN=C(c3cccc([N+](=O)[O-])c3)CN12,3200
2,Cc1ccccc1C1=NN=C2C(F)=Cc3c(n(C4CC4)cc(C(=O)O)c3=O)N2C1,1000 to 48600
3,COc1ccc(C2=NN=C3C(F)=Cc4c(n(C5CC5)cc(C(=O)O)c4=O)N3C2)cc1,1000 to 48600
4,O=C(O)c1cn(C2CC2)c2c(c1=O)C=C(F)C1=NN=C(c3ccc(F)cc3)CN12,1000 to 48600
5,O=C(O)c1cn(C2CC2)c2c(c1=O)C=C(F)C1=NN=C(c3ccc(O)cc3)CN12,1000 to 48600
6,Nc1cccc(C2=NN=C3C(F)=Cc4c(n(C5CC5)cc(C(=O)O)c4=O)N3C2)c1,1000 to 48600
7,O=C(O)c1cn(C2CC2)c2c(c1=O)C=C(F)C1=NN=C(c3cccc(Cl)c3)CN12,1000 to 48600
8,Cc1ccc(C2=NN=C3C(F)=Cc4c(n(C5CC5)cc(C(=O)O)c4=O)N3C2)cc1,1000 to 48600
9,O=C(O)c1cn(C2CC2)c2c(c1=O)C=C(F)C1=NN=C(c3ccc(Cl)cc3)CN12,1000 to 48600
10,O=C(O)c1cn(C2CC2)c2c(c1=O)C=C(F)C1=NN=C(c3ccccc3)CN12,1000 to 48600
11,Nc1ccc(C2=NN=C3C(F)=Cc4c(n(C5CC5)cc(C(=O)O)c4=O)N3C2)cc1,1000 to 48600
12,O=C(O)c1cn(C2CC2)c2c(c1=O)C=C(F)C1=NN=C(c3ccc([N+](=O)[O-])cc3)CN12,3500
13,COc1ccccc1C1=NN=C2C(F)=Cc3c(n(C4CC4)cc(C(=O)O)c3=O)N2C1,1000 to 48600
14,COc1ccc(C2=NN=C3C(F)=Cc4c(n(C5CC5)cc(C(=O)O)c4=O)N3C2)cc1OC,1000 to 48600
15,O=C(O)c1cn(C2CC2)c2c(c1=O)C=C(F)C1=NN=C(c3ccccc3F)CN12,1000 to 48600
16,O=C(O)c1cn(C2CC2)c2c(c1=O)C=C(F)C1=NN=C(c3ccc(Br)cc3)CN12,1000 to 48600
